Experiments:
[1] = tested on: a variety of crops and weed species; experiment: Pre- and post-emergence herbicide tests, overall assessment of TABLES III-VI; assay type: in vivo; settings: from data of TABLES III-VI
Method: (§1) All crop and weed species were planted individually in 3" plastic pots containing potting soil. Four seeds each of corn, cotton, and snapbeans were seeded to a depth equal to the diameter of the seed. All other species were surface seeded and sprinkled with screened soil in an amount sufficient to cover the seed. Immediately after planting, all pots were watered by sub-irrigation in greenhouse trays. Pots for the pre-emergence phase were seeded one day before treatment.
(§2) Planting dates for the post-emergence phase were varied so that all seedlings would reach the desired stage of development simultaneously. The proper stage of seedling development for treatment in the post-emergence phase is as follows:
(§3) Compounds were tested at rates of application equivalent to 8 lbs. of actual compound per acre in a spray volume of 38 gallons per acre. Spray hood constants required to deliver the above volume are as follows:
(§4) Two weeks after treatment, pre- and post-emergence injury or control was visually rated, and the results were as shown in the following tables. Pre-emergence data are provided in TABLE III and post-emergence data are provided in TABLE IV, for compounds having the formula illustrated in TABLE I. Correspondingly, pre-emergence and post-emergence data, respectively, are set forth in TABLES V AND VI, for compounds having the formula illustrated in TABLE II.
Typical of such compounds are: 1, 2, 5, 26, 36, and 37.

[2] = tested on: Bean (BN); experiment: Post-emergence herbicide test, bean; assay type: in vivo, Phaseolus vulgaris var. Black Valentine; settings: two weeks
Method: (§5) Bean (BN)--Phaseolus vulgaris var. Black Valentine
as §1, §2
Beans: primary leaves expanded, growing point at primary leaf nodes.
(§6) Spray hood constants required to deliver the above volume are as follows:
(§7) Formulations for spray applications were prepared in 50 ml volumes with the following three components:
(§8) Formulations for the 4 lbs/acre rate were prepared by adjusting the amount of active ingredient accordingly.
(§9) Spray applications were made in a hood containing a removable belt and fixed spray nozzle. For passage through the spray hood, one pot of each specie (pre-emergence phase) was placed on the rear half of the flat. Treatments were removed to the greenhouse after spraying. Watering during the observation period was done only by sub-irrigation.
as §4

[3] = tested on: Crabgrass (CG); experiment: Post-emergence herbicide test, crabgrass; assay type: in vivo, Digitaria sanguinalis; settings: two weeks
Method: (§10) Crabgrass (CG)--Digitaria sanguinalis
as §1, §2, §6
(§11) Formulations for spray applications were prepared in 50 ml volumes with the following three components: […]
as §9, §4

[4] = tested on: Cotton (CT); experiment: Pre-emergence herbicide test, cotton; assay type: in vivo, Gossypium hirsutum var. DPL smooth leaf; settings: two weeks
Method: (§12) Cotton (CT)--Gossypium hirsutum var. DPL smooth leaf
as §1, §3, §7, §8, §9, §4

[5] = tested on: Corn (CN); experiment: Post-emergence herbicide test, corn; assay type: in vivo, Zea mays; settings: two weeks
Method: as §1, §2, §3, §7, §8, §9, §4

[6] = tested on: Yellow foxtail grass (YF); experiment: Pre-emergence herbicide test, yellow foxtail grass; assay type: in vivo, Setarin glauca; settings: two weeks
Method: (§13) Yellow foxtail grass (YF)--Setarin glauca
as §1, §6, §11, §9, §4

[7] = tested on: Yellow foxtail grass (YF); experiment: Post-emergence herbicide test, yellow foxtail grass; assay type: in vivo, Setarin glauca; settings: two weeks
Method: as §13, §1, §2, §3, §7, §8, §9, §4

[8] = tested on: Amaranth pigweed (PW); experiment: Post-emergence herbicide test, amaranth pigweed; assay type: in vivo, Amaranthus retroflexus; settings: two weeks
Method: (§14) Amaranth pigweed (PW)--Amaranthus retroflexus
as §1, §2
(§15) Pigweed and turnips: 1 or 2 true leaves above visible cotyledons.
as §3, §7, §8, §9, §4

[9] = tested on: Johnson grass (JG); experiment: Post-emergence herbicide test, Johnson grass; assay type: in vivo, Sorgum helepense; settings: two weeks
Method: (§16) Johnson grass (JG)--Sorgum helepense
as §1, §2, §6, §11, §9, §4

[10] = tested on: Corn (CN); experiment: Pre-emergence herbicide test, corn; assay type: in vivo, Zea mays; settings: two weeks
Method: as §1, §3, §7, §8, §9, §4

[11] = tested on: Amaranth pigweed (PW); experiment: Pre-emergence herbicide test, amaranth pigweed; assay type: in vivo, Amaranthus retroflexus; settings: two weeks
Method: as §14, §1, §3, §7, §8, §9, §4

[12] = tested on: Cotton (CT); experiment: Post-emergence herbicide test, cotton; assay type: in vivo, Gossypium hirsutum var. DPL smooth leaf; settings: two weeks
Method: as §12, §1, §2
cotton: first true leaf 1" in length; expanded cotyledons.
as §6, §7, §8, §9, §4

[13] = tested on: Johnson grass (JG); experiment: Pre-emergence herbicide test, Johnson grass; assay type: in vivo, Sorgum helepense; settings: two weeks
Method: as §16, §1, §6, §11, §9, §4

[14] = tested on: Bean (BN); experiment: Pre-emergence herbicide test, bean; assay type: in vivo, Phaseolus vulgaris var. Black Valentine; settings: two weeks
Method: as §5, §1, §3, §7, §8, §9, §4

[15] = tested on: Turnip (TP); experiment: Pre-emergence herbicide test, turnip; assay type: in vivo, Brassica sp.; settings: two weeks
Method: (§17) Turnip (TP)--Brassica sp.
as §1, §6, §11, §9, §4

[16] = tested on: Barnyard grass (BG); experiment: Post-emergence herbicide test, barnyard grass; assay type: in vivo, Echinochloa crus-galli; settings: two weeks
Method: (§18) Barnyard grass (BG)--Echinochloa crus-galli
as §1, §2, §6, §11, §9, §4

[17] = tested on: Turnip (TP); experiment: Post-emergence herbicide test, turnip; assay type: in vivo, Brassica sp.; settings: two weeks
Method: as §17, §1, §2, §15, §6, §11, §9, §4

[18] = tested on: Barnyard grass (BG); experiment: Pre-emergence herbicide test, barnyard grass; assay type: in vivo, Echinochloa crus-galli; settings: two weeks
Method: as §18, §1, §3, §7, §8, §9, §4

[19] = tested on: Crabgrass (CG); experiment: Pre-emergence herbicide test, crabgrass; assay type: in vivo, Digitaria sanguinalis; settings: two weeks
Method: as §10, §1, §6, §7, §8, §9, §4

Structure (SMILES): CN(C)C(=O)Nc1nnc(C(F)(F)F)s1 [Example 2, 1,1-Dimethyl-3-[5-Trifluoromethyl-2-(1,3,4-Thiadiazolyl)]Urea]
- herbicidal effectiveness and selectivity (in words) [1]: extremely effective

Structure (SMILES): CNC(=O)Nc1nnc(SC)s1 [Example 26]
- herbicidal effectiveness and selectivity (in words) [1]: extremely effective

Structure (SMILES): CNC(=O)Nc1nnc(CC(C)C)s1 [Example 21]
- herbicidal effectiveness and selectivity (in words) [1]: more selective

Structure (SMILES): O=C(Nc1ccc(Cl)cc1)Nc1nnc(C(F)(F)F)s1 [Example 15]
- herbicidal effectiveness and selectivity (in words) [1]: more selective

Structure (SMILES): CCc1nnc(NC(=O)N(C)C)s1 [Example 20]
- herbicidal effectiveness and selectivity (in words) [1]: more selective

Structure (SMILES): CCSc1nnc(N(C)C(=O)NC)s1 [Example 89]
- pest or weed control at 560.425 g/ha ([2]; Phaseolus vulgaris, post-emergence, 336 h, 0.5 lb/acre): 100%

Structure (SMILES): C=CCNC(=O)Nc1nnc(C(F)(F)F)s1 [Example 12]
- herbicidal effectiveness and selectivity (in words) [1]: control post-emergence growth, while have little effect in regard to pre-emergence

Structure (SMILES): CNC(=O)Nc1nnc(-c2cccc(C(F)(F)F)c2)s1 [Example 73]
- pest or weed control at 4483.4 g/ha ([3]; Digitaria sanguinalis, post-emergence, 336 h, 4 lb/acre): 80%
- pest or weed control at 4483.4 g/ha ([4]; Gossypium hirsutum, pre-emergence, 336 h, 4 lb/acre): 10%

Structure (SMILES): CNC(=O)N(C)c1nnc(C(C)(C)C)s1 [Example 42]
- POST-EMERGENCE ACTIVITY, % CONTROL ([5]; 2 lb/acre): 70%
- POST-EMERGENCE ACTIVITY, % CONTROL ([5]; 4 lb/acre): 70%
- POST-EMERGENCE ACTIVITY, % CONTROL ([5]; 8 lb/acre): 100%
- PRE-EMERGENCE ACTIVITY, % CONTROL ([6]; 2 lb/acre): 90%
- PRE-EMERGENCE ACTIVITY, % CONTROL ([6]; 4 lb/acre): 80%
- PRE-EMERGENCE ACTIVITY, % CONTROL ([6]; 8 lb/acre): 90%
- POST-EMERGENCE ACTIVITY, % CONTROL ([7]; 2 lb/acre): 90%
- POST-EMERGENCE ACTIVITY, % CONTROL ([7]; 4 lb/acre): 90%
- POST-EMERGENCE ACTIVITY, % CONTROL ([7]; 8 lb/acre): 100%
- POST-EMERGENCE ACTIVITY, % CONTROL ([8]; 2 lb/acre): 100%
- POST-EMERGENCE ACTIVITY, % CONTROL ([8]; 4 lb/acre): 100%
- POST-EMERGENCE ACTIVITY, % CONTROL ([8]; 8 lb/acre): 100%
- POST-EMERGENCE ACTIVITY, % CONTROL ([9]; 2 lb/acre): 70%
- POST-EMERGENCE ACTIVITY, % CONTROL ([9]; 4 lb/acre): 90%
- POST-EMERGENCE ACTIVITY, % CONTROL ([9]; 8 lb/acre): 100%
- PRE-EMERGENCE ACTIVITY, % CONTROL ([10]; 2 lb/acre): 0%
- PRE-EMERGENCE ACTIVITY, % CONTROL ([10]; 4 lb/acre): 60%
- PRE-EMERGENCE ACTIVITY, % CONTROL ([10]; 8 lb/acre): 90%
- PRE-EMERGENCE ACTIVITY, % CONTROL ([11]; 2 lb/acre): 100%
- PRE-EMERGENCE ACTIVITY, % CONTROL ([11]; 4 lb/acre): 100%
- PRE-EMERGENCE ACTIVITY, % CONTROL ([11]; 8 lb/acre): 100%
- POST-EMERGENCE ACTIVITY, % CONTROL ([12]; 2 lb/acre): 100%
- POST-EMERGENCE ACTIVITY, % CONTROL ([12]; 4 lb/acre): 100%
- POST-EMERGENCE ACTIVITY, % CONTROL ([12]; 8 lb/acre): 100%
- PRE-EMERGENCE ACTIVITY, % CONTROL ([13]; 2 lb/acre): 70%
- PRE-EMERGENCE ACTIVITY, % CONTROL ([13]; 4 lb/acre): 90%
- PRE-EMERGENCE ACTIVITY, % CONTROL ([13]; 8 lb/acre): 100%
- PRE-EMERGENCE ACTIVITY, % CONTROL ([14]; 2 lb/acre): 40%
- PRE-EMERGENCE ACTIVITY, % CONTROL ([14]; 4 lb/acre): 90%
- PRE-EMERGENCE ACTIVITY, % CONTROL ([14]; 8 lb/acre): 100%
- POST-EMERGENCE ACTIVITY, % CONTROL ([3]; 2 lb/acre): 40%
- POST-EMERGENCE ACTIVITY, % CONTROL ([3]; 4 lb/acre): 70%
- POST-EMERGENCE ACTIVITY, % CONTROL ([3]; 8 lb/acre): 100%
- PRE-EMERGENCE ACTIVITY, % CONTROL ([4]; 2 lb/acre): 30%
- PRE-EMERGENCE ACTIVITY, % CONTROL ([4]; 4 lb/acre): 70%
- PRE-EMERGENCE ACTIVITY, % CONTROL ([4]; 8 lb/acre): 90%
- PRE-EMERGENCE ACTIVITY, % CONTROL ([15]; 2 lb/acre): 100%
- PRE-EMERGENCE ACTIVITY, % CONTROL ([15]; 4 lb/acre): 90%
- PRE-EMERGENCE ACTIVITY, % CONTROL ([15]; 8 lb/acre): 100%
- POST-EMERGENCE ACTIVITY, % CONTROL ([16]; 2 lb/acre): 90%
- POST-EMERGENCE ACTIVITY, % CONTROL ([16]; 4 lb/acre): 90%
- POST-EMERGENCE ACTIVITY, % CONTROL ([16]; 8 lb/acre): 100%
- POST-EMERGENCE ACTIVITY, % CONTROL ([2]; 2 lb/acre): 80%
- POST-EMERGENCE ACTIVITY, % CONTROL ([2]; 4 lb/acre): 100%
- POST-EMERGENCE ACTIVITY, % CONTROL ([2]; 8 lb/acre): 100%
- POST-EMERGENCE ACTIVITY, % CONTROL ([17]; 2 lb/acre): 100%
- POST-EMERGENCE ACTIVITY, % CONTROL ([17]; 4 lb/acre): 100%
- POST-EMERGENCE ACTIVITY, % CONTROL ([17]; 8 lb/acre): 100%
- PRE-EMERGENCE ACTIVITY, % CONTROL ([18]; 2 lb/acre): 80%
- PRE-EMERGENCE ACTIVITY, % CONTROL ([18]; 4 lb/acre): 90%
- PRE-EMERGENCE ACTIVITY, % CONTROL ([18]; 8 lb/acre): 90%
- PRE-EMERGENCE ACTIVITY, % CONTROL ([19]; 2 lb/acre): 90%
- PRE-EMERGENCE ACTIVITY, % CONTROL ([19]; 4 lb/acre): 90%
- PRE-EMERGENCE ACTIVITY, % CONTROL ([19]; 8 lb/acre): 90%

Structure (SMILES): CNC(=O)Nc1nnc(COC)s1 [Example 25]
- herbicidal effectiveness and selectivity (in words) [1]: more selective
